In US20240116985A1, “STAPLED PEPTIDES AND METHODS THEREOF” (priority 2020, published 2024):
pIC50: −log10 of the molar value. Like-named read-outs stand apart in the source and are kept apart here.

Key:
[1] = target: T1, beta-catenin/TCF4 engagement (Homo sapiens, UniProt P35222); experiment: Nano-BRET target engagement assay (B-cat-Halo & TCF4-Luc in HEK293 cells); assay type: cell-based; settings: read-out: NanoBRET Abs IC50
T1 construct: expressed in transfected cells; host or cells: HEK293
T1 sequence (P35222 1-781): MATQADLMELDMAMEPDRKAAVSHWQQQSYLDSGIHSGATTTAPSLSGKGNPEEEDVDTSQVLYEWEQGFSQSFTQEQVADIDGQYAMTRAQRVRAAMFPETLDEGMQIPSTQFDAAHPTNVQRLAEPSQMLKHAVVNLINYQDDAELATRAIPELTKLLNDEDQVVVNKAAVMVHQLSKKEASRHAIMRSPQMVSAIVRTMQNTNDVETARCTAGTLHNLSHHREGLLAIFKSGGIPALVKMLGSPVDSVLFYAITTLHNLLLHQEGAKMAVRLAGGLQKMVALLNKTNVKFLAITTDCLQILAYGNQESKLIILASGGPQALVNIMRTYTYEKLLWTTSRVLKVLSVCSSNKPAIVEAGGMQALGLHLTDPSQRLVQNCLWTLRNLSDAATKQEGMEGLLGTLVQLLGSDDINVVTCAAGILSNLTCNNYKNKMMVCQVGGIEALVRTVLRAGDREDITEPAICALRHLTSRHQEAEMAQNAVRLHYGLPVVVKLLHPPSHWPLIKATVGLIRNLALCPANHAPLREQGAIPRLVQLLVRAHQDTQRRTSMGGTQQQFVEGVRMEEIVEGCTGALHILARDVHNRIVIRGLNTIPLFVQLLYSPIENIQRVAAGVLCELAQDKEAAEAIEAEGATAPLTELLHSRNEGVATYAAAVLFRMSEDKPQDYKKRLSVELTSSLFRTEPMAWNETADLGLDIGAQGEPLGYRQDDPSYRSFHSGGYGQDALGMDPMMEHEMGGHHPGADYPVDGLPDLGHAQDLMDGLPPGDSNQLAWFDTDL

[2] = target: T2, full-length beta-Catenin (Uniprot ID P35222) (Homo sapiens, UniProt P35222); experiment: Fluorescence polarization IC50 (beta-catenin / 5FAM-TCF4 10-53 competition); assay type: binding; settings: fluorescence polarization; read-out: beta-Catenin FP IC50
T2 construct: 10 nM full-length beta-Catenin (Uniprot ID P35222)
T2 sequence (P35222 1-781): T1 sequence (P35222 1-781)

SMILES	pIC50 ([1]; absolute IC50)	pIC50 [2]	pIC50 [1]
CC(=O)N1CCC[C@]12CC=CCCCC1(CCCC=CCCCOC(=O)N3CC[C@@](C(=O)N[C@@H](Cc4ccsc4)C(=O)N[C@@H](Cc4csc5ccccc45)C(=O)N[C@@H](CCC(N)=O)C(N)=O)(C3)NC(=O)[C@H](CCO)NC(=O)[C@H](Cc3ccccc3)NC(=O)[C@H](C)NC(=O)[C@H](C)NC(=O)[C@H](CCc3ccc(O)cc3)NC(=O)[C@H](CC(=O)O)NC1=O)NC(=O)[C@H](CC(C)(C)C)NC(=O)[C@H](CC(=O)O)NC2=O (stereo partly drawn) [I-1786, Ac-PL3-Asp-Npg-B5-Asp-hTyr-Ala-Ala-Phe-Hse-PyrS2-3Thi-BztA-Gln-NH2]	< 4.70	7.38	–
CC(=O)N1CCC[C@]12CC=CCCCC1(CCCC=CCCCOC(=O)N3CC[C@@](C(=O)N[C@@H](Cc4ccsc4)C(=O)N[C@@H](Cc4csc5ccccc45)C(=O)N[C@@H](CCC(N)=O)C(N)=O)(C3)NC(=O)[C@H](CC(C)C)NC(=O)[C@H](Cc3ccccc3)NC(=O)[C@H](C)NC(=O)[C@H](C)NC(=O)[C@H](CCn3cc(-c4ccccc4C(=O)O)nn3)NC(=O)[C@H](CC(=O)O)NC1=O)NC(=O)[C@H](CC(C)(C)C)NC(=O)[C@H](CC(=O)O)NC2=O (stereo partly drawn) [I-2080, Ac-PL3-Asp-Npg-B5-Asp-[2COOHPh]TriAzDab-Ala-Ala-Phe-Leu-PyrS2-3Thi-BztA-Gln-NH2]	–	7.35	4.54
CC(=O)N1CCC[C@]12CC=CCCCC1(CCCC=CCCCOC(=O)N3CC[C@@](C(=O)N[C@@H](Cc4ccccc4C(F)(F)F)C(=O)N[C@@H](Cc4csc5ccccc45)C(=O)N[C@@H](CCC(N)=O)C(N)=O)(C3)NC(=O)[C@H](CC(C)C)NC(=O)[C@H](Cc3ccccc3)NC(=O)[C@H](C)NC(=O)[C@H](C)NC(=O)[C@H](CN(CC(=O)O)CC(F)(F)F)NC(=O)[C@H](CC(=O)O)NC1=O)NC(=O)[C@H](CC(C)(C)C)NC(=O)[C@H](CC(=O)O)NC2=O (stereo partly drawn) [I-1704, Ac-PL3-Asp-Npg-B5-Asp-TfeGA-Ala-Ala-Phe-Leu-PyrS2-2F3MeF-BztA-Gln-NH2]	5.28	7.43	–
CC(=O)N1CCC[C@]12CC=CCCCC1(CCCC=CCCCOC(=O)N3CC[C@@](C(=O)N[C@@H](Cc4ccccc4Cl)C(=O)N[C@@H](Cc4csc5ccccc45)C(=O)N[C@@H](C)C(N)=O)(C3)NC(=O)[C@H](C)NC(=O)[C@H](Cc3ccccc3)NC(=O)[C@H](C)NC(=O)[C@H](C)NC(=O)[C@H](Cc3cccc(C(=O)O)c3)NC(=O)[C@H](CC(=O)O)NC1=O)NC(=O)[C@H](CC(C)(C)C)NC(=O)[C@H](CC(=O)O)NC2=O (stereo partly drawn) [I-2023, Ac-PL3-Asp-Npg-B5-Asp-3COOHF-Ala-Ala-Phe-Ala-PyrS2-2C1F-BztA-Ala-NH2]	–	7.49	5.11
CC(=O)N1CCC[C@]12CC=CCCCC1(CCCC=CCCCOC(=O)N3CC[C@@](C(=O)N[C@@H](Cc4ccsc4)C(=O)N[C@@H](Cc4csc5ccccc45)C(=O)N[C@@H](CCC(N)=O)C(N)=O)(C3)NC(=O)[C@H](CCO)NC(=O)[C@H](Cc3cccc(C(=O)O)c3)NC(=O)[C@H](C)NC(=O)[C@H](C)NC(=O)[C@H](Cc3c[nH]cn3)NC(=O)[C@H](CC(=O)O)NC1=O)NC(=O)[C@H](CC(C)(C)C)NC(=O)[C@H](CC(=O)O)NC2=O (stereo partly drawn) [I-2121, Ac-PL3-Asp-Npg-B5-Asp-His-Ala-Ala-3COOHF-Hse-PyrS2-3Thi-BztA-Gln-NH2]	–	7.92	< 4.70
CC(=O)N1CCC[C@]12CC=CCCCC1(CCCC=CCCCOC(=O)N3CC[C@@](C(=O)N[C@@H](Cc4ccsc4)C(=O)N[C@@H](Cc4csc5ccccc45)C(=O)N[C@@H](CCC(=O)N4CCC(N5CCN(C)CC5)CC4)C(N)=O)(C3)NC(=O)[C@H](CC(C)C)NC(=O)[C@H](Cc3ccccc3)NC(=O)[C@H](C)NC(=O)[C@H](C)NC(=O)[C@H](CN(CC(=O)O)CC(F)(F)F)NC(=O)[C@H](CC(=O)O)NC1=O)NC(=O)[C@H](CC(C)(C)C)NC(=O)[C@H](CC(=O)O)NC2=O (stereo partly drawn) [I-1802, Ac-PL3-Asp-Npg-B5-Asp-TfeGA-Ala-Ala-Phe-Leu-PyrS2-3Thi-BztA-[4MePpzPip]GlnR-NH2]	4.60	7.96	–
CC(=O)N1CCC[C@]12CC=CCCCC1(CCCC=CCCCCCC[C@@](C)(C(=O)N[C@@H](Cc3ccccc3C(F)(F)F)C(=O)N[C@@H](Cc3csc4ccccc34)C(=O)N[C@@H](CCC(N)=O)C(N)=O)NC(=O)[C@H](CCO)NC(=O)[C@H](Cc3ccccc3)NC(=O)[C@H](C)NC(=O)[C@H](C)NC(=O)[C@H](CC(=O)O)NC(=O)[C@H](CC(=O)O)NC1=O)NC(=O)[C@H](CC(C)(C)C)NC(=O)[C@H](CC(=O)O)NC2=O (stereo partly drawn) [I-1397, Ac-PL3-Asp-Npg-B5-Asp-Asp-Ala-Ala-Phe-Hse-S8-2F3MeF-BztA-Gln-NH2]	4.79	7.32	–
CC(=O)N1CCC[C@]12CC=CCCCC1(CCCC=CCCCOC(=O)N3CC[C@@](C(=O)N[C@@H](Cc4ccsc4)C(=O)N[C@@H](Cc4csc5ccccc45)C(=O)N[C@@H](CCC(N)=O)C(N)=O)(C3)NC(=O)[C@H](CC(C)C)NC(=O)[C@H](Cc3ccccc3)NC(=O)[C@H](C)NC(=O)[C@H](C)NC(=O)[C@H](CC(=O)O)NC(=O)[C@H](CC(=O)O)NC1=O)NC(=O)[C@H](CCCCNC(=O)COCCOCCNC(=O)C13CC4(C)CC(C)(CC(C)(C4)C1)C3)NC(=O)[C@H](CC(=O)O)NC2=O (stereo partly drawn) [I-1472, Ac-PL3-Asp-[Me3AdamantC-PEG2]-Lys-B5-Asp-Asp-Ala-Ala-Phe-Leu-PyrS2-3Thi-BztA-Gln-NH2]	< 4.70	7.92	–
CC(=O)N1CCC[C@]12CC=CCCCC1(CCCC=CCCCOC(=O)N3CC[C@@](C(=O)N[C@@H](Cc4ccsc4)C(=O)N[C@@H](Cc4csc5ccccc45)C(=O)N[C@@H](CCC(N)=O)C(N)=O)(C3)NC(=O)[C@H](CC(C)C)NC(=O)[C@H](Cc3ccccc3)NC(=O)[C@H](C)NC(=O)[C@H](C)NC(=O)[C@H](Cc3c[nH]cn3)NC(=O)[C@H](CC(=O)O)NC1=O)NC(=O)[C@H](CC(C)(C)C)NC(=O)[C@H](CC(=O)O)NC2=O (stereo partly drawn) [I-1796, Ac-PL3-Asp-Npg-B5-Asp-His-Ala-Ala-Phe-Leu-PyrS2-3Thi-BztA-Gln-NH2]	< 4.70	7.66	–
CCCC[C@@H]1NC(=O)[C@H](CN(CC(=O)O)CC(F)(F)F)NC(=O)[C@H](CC(=O)O)NC(=O)C2(CCCC=CCCCOC(=O)N3CC[C@@](C(=O)N[C@@H](Cc4ccccc4Cl)C(=O)N[C@@H](Cc4csc5ccccc45)C(=O)N[C@@H](CCC(N)=O)C(N)=O)(C3)NC(=O)[C@H]([C@@H](C)O)NC(=O)[C@H](Cc3ccccc3)NC(=O)CNC1=O)CCCC=CC[C@]1(CCCN1C(C)=O)C(=O)N[C@@H](CC(=O)O)C(=O)N[C@@H](CC(C)(C)C)C(=O)N2 (stereo partly drawn) [I-1695, Ac-PL3-Asp-Npg-B5-Asp-TfeGA-nLeu-Gly-Phe-Thr-PyrS2-2C1F-BztA-Gln-NH2]	< 4.70	7.03	–
CC(=O)N1CCC[C@]12CC=CCCCC1(CCCC=CCCCOC(=O)N3CC[C@@](C(=O)N[C@@H](Cc4ccsc4)C(=O)N[C@@H](Cc4csc5ccccc45)C(=O)N[C@@H](C)C(N)=O)(C3)NC(=O)[C@H](CC(C)C)NC(=O)[C@H](Cc3ccccc3)NC(=O)[C@H](C)NC(=O)[C@H](CCCCNC(C)C)NC(=O)[C@H](Cc3cccc(C(=O)O)c3)NC(=O)[C@H](CC(=O)O)NC1=O)NC(=O)[C@H](CC(C)(C)C)NC(=O)[C@H](CC(=O)O)NC2=O (stereo partly drawn) [I-1915, Ac-PL3-Asp-Npg-B5-Asp-3COOHF-iPrLys-Ala-Phe-Leu-PyrS2-3Thi-BztA-Ala-NH2]	–	7.96	4.69
CCNC(=O)CC[C@H](NC(=O)[C@H](Cc1csc2ccccc12)NC(=O)[C@H](Cc1ccccc1C(F)(F)F)NC(=O)[C@]12CCN(C1)C(=O)OCCCC=CCCCC1(CCCC=CC[C@]3(CCCN3C(C)=O)C(=O)N[C@@H](CC(=O)O)C(=O)N[C@@H](CC(C)(C)C)C(=O)N1)C(=O)N[C@@H](CC(=O)O)C(=O)N[C@@H](Cc1cccc(C(=O)O)c1)C(=O)N[C@@H](CCC(=O)NCC)C(=O)N[C@@H](C)C(=O)N[C@@H](Cc1ccccc1)C(=O)N[C@@H](CC(C)C)C(=O)N2)C(N)=O (stereo partly drawn) [I-2299, Ac-PL3-Asp-Npg-B5-Asp-3COOHF-[NHEt]GlnR-Ala-Phe-Leu-PyrS2-2F3MeF-BztA-NHEt]GlnR-NH2]	5.28	8.15	–
CC(=O)N1CCC[C@]12CC=CCCCC1(CCCC=CCCOC(=O)N3CC[C@@](C(=O)N[C@@H](Cc4ccsc4)C(=O)N[C@@H](Cc4csc5ccccc45)C(=O)N[C@@H](CCC(N)=O)C(N)=O)(C3)NC(=O)[C@H](CC(C)C)NC(=O)[C@H](Cc3ccccc3)NC(=O)[C@H](C)NC(=O)[C@H](C)NC(=O)[C@H](CC(=O)O)NC(=O)[C@H](CC(=O)O)NC1=O)NC(=O)[C@H](CC(C)(C)C)NC(=O)[C@H](CC(=O)O)NC2=O (stereo partly drawn) [I-1815, Ac-PL3-Asp-Npg-B5-Asp-Asp-Ala-Ala-Phe-Leu-PyrS1-3Thi-BztA-Gln-NH2]	< 4.70	7.34	–
